Where a SMILES comes first, the peptide text is derived from it.
How the values were obtained:
[1] = test system: TLP antigen on primary NSCLC culture cells; test: Induction of TLP antigen expression on tumor cells by chemotherapy in vitro; type: cell-based, human; settings: 10:g/ml for 48 hours; for TLP status of TLP-positive cell population after treatment: etoposide and cis-platinum
Text: The cells were processed fresh and after preparation of primary cultures (complete RPMI 1640 culture medium with the addition of FCS 10%).
Along with variation in TLP, other possible phenotype modifications (IL-2 rec (interleukin receptors), HLA-Dr (human leukocyte antigen), CD16 (lymphocyte sub-populations), etc.) induced by treatment with single or combined agents (chemotherapy, cytokines) were also studied.
In the case of TLP, freshly isolated tumor cells were obtained from a surgical NSCLC patient. After plating for 24 h and separation of fibroblasts, cells were resuspended for immunohistochemistry and cytofluorimetric assay. Briefly, CSH 419 antiserum was labeled with PE conjugated anti-rabbit IgG and incubated with the cells.
The freeing of TLP in the culture supernatant was checked using the ELISA test.

[2] = test system: cytotoxic CD8 lymphocytes; test: Stimulation of cytotoxic CD8 lymphocytes by synthetic polypeptide; type: cell-based, human; settings: only in patients suffering from NSCLC neoplasia

SMILES	TLP status of TLP-negative cell population after treatment [1]	TLP status of TLP-positive cell population after treatment [1]	stimulation of cytotoxic CD8 lymphocytes [2]
COc1cc([C@@H]2c3cc4c(cc3[C@@H](O[C@@H]3O[C@@H]5CO[C@@H](C)O[C@H]5[C@H](O)[C@H]3O)[C@H]3COC(=O)[C@H]23)OCO4)cc(OC)c1O [etoposide]	became TLP-positive	remained TLP positive	–
N.N.[Cl][Pt][Cl] [cis-platinum]	became TLP-positive	remained TLP positive	–
CC[C@H](C)[C@H](NC(=O)[C@H](CO)NC(=O)[C@H](C)NC(=O)[C@H](CCC(=O)O)NC(=O)[C@H](CCCCN)NC(=O)[C@H](CC(N)=O)NC(=O)[C@@H](NC(=O)[C@@H](N)CCCNC(=N)N)[C@@H](C)O)C(=O)O [SEQ ID NO: 1, ArgThrAsnLysGluAlaSerIle] (H-RTNKEASI-OH; N-terminus and C-terminus assumed)	–	–	specific stimulation of the cytotoxic CD8 lymphocytes

From US20040022870A1, “Immunogenic TLP composition” (priority 1996, published 2004)
